The text below walks through data of publication PMC11684029, “Discovery of VU6024578/BI02982816: An mGlu1 Positive Allosteric Modulator with Efficacy in Preclinical Antipsychotic and Cognition Models” (Journal of Medicinal Chemistry, 2024).

For one series, the target named is 5-HT2B (Homo sapiens, UniProt P41595). The series can be described thus: follow-up functional assay. It counts as biochemical.
The test system of the next series is 4-strain ± S9. Nature of the series: Ames test. (The Ames test uses bacterial strains that need an amino acid and regain growth without it when mutated back.)
Series [1] is described as follows: predicted hepatic clearance. The class given is in vitro ADME, dog. An excerpt: Across species, 19d had acceptable fraction unbound in both plasma (fu (plasma): 0.03 (human), 0.041 (rat), 0.025 (cyno), 0.039 (dog) and 0.056 (mouse)) and brain (fu (brain): 0.034 (rat) and 0.081 (mouse)).
A further series concerns the target T1, 1A2 (Homo sapiens, UniProt P05177).
T1 construct: 0.1 mg/mL human liver microsomes (HLM) and Substrate Mix; from tissue; host or cells: human liver microsomes
Nature of the series: inhibition of cytochrome P450 enzymes. The class given is in vitro ADME. As to conditions: human liver microsomes; read-out: CYP450 1A2 inhibition. On the procedure: (§1) A cocktail of substrates for cytochrome P450 enzymes (1A2: Phenacetin, 10 μM; 2C9: Diclofenac, 5 μM; 2D6: Dextromethorphan, 5 μM; 3A4: Midazolam, 2 μM) were mixed for cocktail analysis. For P450 2C19, the substrate stock (Mephenytoin, 40 μM)and substrate mix were prepared separately for discrete analysis. The positive control for pan-P450 inhibition (miconazole) was included alongside each test compound in analysis.
(§2) A reaction mixture of 100 mM Kpi, pH 7.4, 0.1 mg/mL human liver microsomes (HLM) and Substrate Mix is prepared and aliquoted into a 96-deepwell block. Test compound and positive control (in duplicate) were then added such that the final concentration of test compound ranged from 0.1–30 μM. The plate was vortexed briefly and then preincubated at 37 °C while shaking for 15 min. The reaction was initiated with the addition of NADPH (1 mM final concentration). The incubation continued for 8 min and the reaction quenched by 2x volume of cold acetonitrile containing internal standard (50 nM carbamazepine). The plate was centrifuged for 10 min (4000 rcf, 4 °C) and the resulting supernatant diluted 1:1 with water for LC/MS/MS analysis. A 12 point standard curve of substrate metabolites over the range of 0.98 nM to 2000 nM.
(§3) Samples were analyzed via electrospray ionization (ESI) on an AB Sciex API-4000 (Foster City, CA) triple-quadrupole instrument that was coupled with Shimadzu LC-10AD pumps (Columbia, MD) and a Leap Technologies CTC PAL autosampler (Carrboro, NC). Analytes were separated by gradient elution using a Fortis C18 3.0 × 50 mm, 3 μm column (Fortis Technologies Ltd., Cheshire, UK) thermostated at 40 °C. […]
(§4) The IC50 values for each compound were obtained for the individual CYP enzymes by quantitating the inhibition of metabolite formation for each probe substrate. A 0 μM compound condition (or control) was set to 100% enzymatic activity and the effect of increasing test compound concentrations on enzymatic activity could then be calculated from the % of control activity. […]
In general terms: Liver microsomes are a subcellular fraction often used to study metabolism.

Another series has as its target T2, 2C9 (Homo sapiens, UniProt P11712).
T2 construct: 0.1 mg/mL human liver microsomes (HLM) and Substrate Mix; from tissue; host or cells: human liver microsomes
Nature of the series: inhibition of cytochrome P450 enzymes. The class given is in vitro ADME. The following applies: human liver microsomes; read-out: CYP450 2C9 inhibition. How it is done:
as §1, §2, §3, §4

The target in another series is T3, 2D6 (Homo sapiens, UniProt P10635).
T3 construct: 0.1 mg/mL human liver microsomes (HLM) and Substrate Mix; from tissue; host or cells: human liver microsomes
The series can be described thus: inhibition of cytochrome P450 enzymes. It counts as in vitro ADME. As to conditions: human liver microsomes; read-out: CYP450 2D6 inhibition. On the procedure: as §1, §2, §3, §4

Series [2] can be described thus: rat IV plasma:brain level (PBL) PK. It counts as in vivo.
A further series deals with Sprague–Dawley rats. Nature of the series: catalepsy (latency to withdraw). The class given is in vivo. The following applies: rat, doses up to 10 mg/kg p.o., 100 min postdose. How it is done:
In order to enable our target validation work, we first profiled PAM 19d in a rat locomotor battery to ensure that pharmacodynamic efficacy was not mistaken for gross effects on locomotion.[20] […] PK was performed in parallel to establish a PK/PD relationship.[24]
Control rats were injected with 1.5 mg/kg of haloperidol i.p. (dissolved in 8% lactic acid and taken to volume of 50 mL with sterile water) and were returned to their home cage for 90 min. Cataleptic behavior is determined by placing the forelimbs on a bar raised 6 cm above the table and recording the amount of time it takes for the rat to withdraw the forelimbs with a cutoff of 60 s. Data are expressed as mean latency to withdraw + SEM or percent inhibition of catalepsy + SEM.

The target of a further series is T4, Adenosine A1 (Homo sapiens, UniProt P30542).
T4 construct: Eurofins
Nature of the series: Eurofins radioligand binding panel. As to conditions: antagonist radioligand. An excerpt: (§5) Table S1. Eurofins Lead Profiling Screen Data
(§6) This is a radioligand binding panel of 80 targets including GPCRs, ion channels, transporters and nuclear hormones. Biochemical assay results are presented as the percent inhibition of specific […]
(§7) Results showing an inhibition or stimulation higher than 50% are considered to represent significant effect and are highlighted […]
(§8) Target / Protein Species % Inhibition at 10

In series [3] the test system is Ca2+ channel (L, verapamil site) (phenylalkylamine). Nature of the series: Eurofins radioligand binding panel. Also on record: species or system rat. As to conditions: antagonist radioligand.
Source text: as §5, §6
(§9) Results showing an inhibition or stimulation higher than 50% are considered to represent significant effect and are highlighted

The next series concerns GABA (non-selective). The series can be described thus: Eurofins radioligand binding panel. On the set-up: species or system rat. The following applies: agonist radioligand.
Source text: as §5, §6, §9

The next series relates to KV channel. Nature of the series: Eurofins radioligand binding panel. Also on record: species or system rat. As to conditions: antagonist radioligand.
Source text: as §5, §6, §9

Another series has as its system P2Y. The series can be described thus: Eurofins radioligand binding panel. The following applies: agonist radioligand. Also on record: species or system rat.
Source text: as §5, §6, §9

A further series concerns PCP. Nature of the series: Eurofins radioligand binding panel. Also on record: species or system rat. As to conditions: antagonist radioligand.
Source text: as §5, §6, §9

The next series deals with SKCa channel. The series can be described thus: Eurofins radioligand binding panel. Also on record: species or system rat. As to conditions: antagonist radioligand.
Source text: as §5, §6, §9

The next series has as its target T5, EP4 (Homo sapiens, UniProt P35408).
T5 construct: Eurofins
The series can be described thus: Eurofins radioligand binding panel. As to conditions: agonist radioligand.
Source text: as §5, §6, §7, §8
Adenosine A1 (antagonist radioligand) human 8
Adenosine A2A (agonist radioligand) human -1
Adenosine A3 (agonist radioligand) human 23
Adrenergic alpha 1 (non-selective) (antagonist radioligand) rat 19
Adrenergic alpha 2 (non-selective) (antagonist radioligand) rat 1
Adrenergic beta 1 (agonist radioligand) human 1
Adrenergic beta 2 (antagonist radioligand) human -1
AT1 (antagonist radioligand) human -1
AT2 (agonist radioligand) human 2 […]
BB (non-selective) (agonist radioligand) rat -20
B2 (agonist radioligand) human 7
CGRP (agonist radioligand) human 1
CB1 (agonist radioligand) human 0
CCK1 (CCKA) (agonist radioligand) human 7
CCK2 (CCKB) (agonist radioligand) human -4

“Also recorded” adds a separate entry of the source.

T2 sequence (P11712 whole entry): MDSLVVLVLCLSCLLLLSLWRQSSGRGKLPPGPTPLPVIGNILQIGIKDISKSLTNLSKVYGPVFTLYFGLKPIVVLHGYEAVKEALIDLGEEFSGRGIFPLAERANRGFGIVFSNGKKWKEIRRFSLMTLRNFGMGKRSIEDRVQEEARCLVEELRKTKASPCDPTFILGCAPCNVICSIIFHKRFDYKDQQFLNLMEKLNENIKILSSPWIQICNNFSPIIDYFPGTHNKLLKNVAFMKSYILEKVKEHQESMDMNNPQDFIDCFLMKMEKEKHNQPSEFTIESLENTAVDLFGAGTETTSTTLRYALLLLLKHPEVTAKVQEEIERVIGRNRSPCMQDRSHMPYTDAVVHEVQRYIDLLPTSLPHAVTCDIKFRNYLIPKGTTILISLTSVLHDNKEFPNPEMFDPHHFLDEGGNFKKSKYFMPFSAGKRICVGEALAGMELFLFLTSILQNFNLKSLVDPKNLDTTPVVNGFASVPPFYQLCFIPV
5-HT2B, sequence (P41595 whole entry): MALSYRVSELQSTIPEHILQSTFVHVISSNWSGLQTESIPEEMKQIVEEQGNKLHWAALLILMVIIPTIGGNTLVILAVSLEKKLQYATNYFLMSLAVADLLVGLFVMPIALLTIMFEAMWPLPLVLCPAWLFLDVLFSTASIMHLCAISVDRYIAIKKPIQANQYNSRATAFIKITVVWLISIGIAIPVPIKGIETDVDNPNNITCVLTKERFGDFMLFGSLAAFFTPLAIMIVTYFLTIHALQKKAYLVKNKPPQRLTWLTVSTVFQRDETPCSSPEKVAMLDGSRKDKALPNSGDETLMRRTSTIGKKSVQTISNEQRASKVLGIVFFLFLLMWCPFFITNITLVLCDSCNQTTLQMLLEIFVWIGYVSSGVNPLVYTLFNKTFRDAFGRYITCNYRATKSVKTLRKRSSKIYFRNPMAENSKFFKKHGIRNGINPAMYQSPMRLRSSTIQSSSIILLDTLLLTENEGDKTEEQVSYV
T5 sequence (P35408 whole entry): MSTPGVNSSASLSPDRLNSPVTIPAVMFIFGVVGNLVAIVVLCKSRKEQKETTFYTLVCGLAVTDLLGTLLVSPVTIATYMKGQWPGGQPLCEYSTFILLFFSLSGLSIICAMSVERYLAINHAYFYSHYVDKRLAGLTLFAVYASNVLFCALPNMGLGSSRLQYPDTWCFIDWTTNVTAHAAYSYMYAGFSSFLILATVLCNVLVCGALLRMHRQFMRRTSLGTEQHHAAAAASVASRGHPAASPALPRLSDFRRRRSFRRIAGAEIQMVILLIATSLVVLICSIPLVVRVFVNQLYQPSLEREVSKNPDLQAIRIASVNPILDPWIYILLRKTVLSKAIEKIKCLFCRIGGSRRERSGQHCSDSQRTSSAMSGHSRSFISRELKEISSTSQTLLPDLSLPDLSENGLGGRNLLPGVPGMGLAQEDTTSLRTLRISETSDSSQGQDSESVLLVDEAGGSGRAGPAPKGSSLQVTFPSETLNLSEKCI
T4 sequence (P30542 whole entry): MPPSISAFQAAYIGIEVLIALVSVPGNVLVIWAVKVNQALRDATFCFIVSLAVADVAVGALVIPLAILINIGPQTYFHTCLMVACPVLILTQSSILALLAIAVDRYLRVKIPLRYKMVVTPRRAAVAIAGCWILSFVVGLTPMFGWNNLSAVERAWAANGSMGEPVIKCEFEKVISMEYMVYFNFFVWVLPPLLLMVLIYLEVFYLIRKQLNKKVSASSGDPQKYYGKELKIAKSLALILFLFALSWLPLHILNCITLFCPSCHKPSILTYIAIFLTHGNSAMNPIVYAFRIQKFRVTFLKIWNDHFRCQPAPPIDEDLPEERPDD
T3 sequence (P10635 whole entry): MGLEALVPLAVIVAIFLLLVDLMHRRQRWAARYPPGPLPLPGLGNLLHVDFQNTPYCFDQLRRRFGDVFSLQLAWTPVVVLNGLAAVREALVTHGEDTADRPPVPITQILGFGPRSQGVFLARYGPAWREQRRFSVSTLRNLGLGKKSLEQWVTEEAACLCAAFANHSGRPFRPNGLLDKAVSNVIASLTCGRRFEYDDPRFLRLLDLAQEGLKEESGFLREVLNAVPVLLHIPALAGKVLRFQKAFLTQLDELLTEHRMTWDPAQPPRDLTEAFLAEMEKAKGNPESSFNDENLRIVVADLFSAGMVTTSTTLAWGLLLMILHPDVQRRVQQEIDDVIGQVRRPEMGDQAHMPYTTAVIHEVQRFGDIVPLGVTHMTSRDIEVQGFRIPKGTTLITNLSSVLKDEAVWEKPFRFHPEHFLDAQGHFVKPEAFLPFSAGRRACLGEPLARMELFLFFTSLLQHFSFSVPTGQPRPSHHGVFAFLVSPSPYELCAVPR
T1 sequence (P05177 whole entry): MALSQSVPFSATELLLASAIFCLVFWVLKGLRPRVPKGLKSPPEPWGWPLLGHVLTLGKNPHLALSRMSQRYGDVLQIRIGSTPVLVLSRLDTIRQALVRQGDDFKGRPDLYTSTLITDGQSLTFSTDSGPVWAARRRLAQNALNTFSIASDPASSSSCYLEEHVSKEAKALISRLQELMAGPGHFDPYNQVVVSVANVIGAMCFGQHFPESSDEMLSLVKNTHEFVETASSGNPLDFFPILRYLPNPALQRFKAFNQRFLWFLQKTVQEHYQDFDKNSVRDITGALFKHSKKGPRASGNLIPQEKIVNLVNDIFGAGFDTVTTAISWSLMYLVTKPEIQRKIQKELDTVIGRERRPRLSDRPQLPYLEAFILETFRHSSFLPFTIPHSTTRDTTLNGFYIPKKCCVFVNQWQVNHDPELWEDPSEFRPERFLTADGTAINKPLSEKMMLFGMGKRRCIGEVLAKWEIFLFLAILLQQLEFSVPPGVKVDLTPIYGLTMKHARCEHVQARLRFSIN

With `Cn1nc(-c2ccnn2C)cc1CNC(=O)c1cc(-c2ccco2)ccc1Cl` [Compound 19d, 2-Chloro-N-((1,2′-dimethyl-1H,2’H-[3,3′-bipyrazol]-5-yl)methyl)-5-(furan-2-yl)benzamide], the “functional activity at 5-HT2B” value on 5-HT2B was “inactive”. Also, in the series on 4-strain ± S9, the Ames test result is listed as “negative”. In addition, in series [1], the “CLhep, dog” value is 23 mL/min/kg. In addition, the IC50 was 17 µM on 1A2, 6.4 µM at 2C9 and 28 µM on 2D6. Moreover, the Kp – broadly, tissue or fluid exposure divided by exposure in the circulation – at 15 min in series [2] (Sprague-Dawley, 0.25 mg/kg/compound, rat IV PBL, brain:plasma) was 0.99. Besides, in series [2] (Sprague-Dawley, brain, 0.25 mg/kg/compound, rat IV PBL), the Kp uu at 15 min came to 0.82. Besides, the half-life (commonly the time in which the quantity being followed falls by half) in [2] (plasma, iv, 1 mg/kg, rat PK PBL experiment) is 3.6 h. Further, in series [2] (plasma, iv, 1 mg/kg, rat PK PBL experiment, read-out: CLp), the clearance came out at 8.3 mL/min/kg. In [2] (plasma, iv, 1 mg/kg, rat PK PBL experiment, read-out: MRT), the MRT – broadly, a mean duration of stay, worked out from the concentration-time curve – came out at 3.5 h. For the same compound, the Vd in series [2] (plasma, iv, 1 mg/kg, rat PK PBL experiment, read-out: Vss) came to 1.78 L/kg. Besides, the catalepsy entry in the series with Sprague–Dawley rats was “lack of effect; also recorded: without effect”. The inhibition – broadly, the percentage by which the read-out fell short of the control – at 10 µM is 8% on Adenosine A1 and 62% on EP4. The % Inhibition (usually the relative decrease from the control value, in per cent) at 10 µM is -16% in series [3]; -3% in the series on GABA (non-selective); 8% in the series with KV channel; 23% with P2Y; 2% in the series with PCP; 2% in the series with SKCa channel.
